The source of these data is PubChem BioAssay (NCI).

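In this assay, cells in 96-well plates receive the compound at five concentrations for 48 hours. Endpoints are linearly interpolated between the surrounding concentrations. GI50 marks 50% less growth. Definition used: TGI = concentration required for complete inhibition of growth.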

Common to all, as to test: DTP human tumour cell line panel, 48 h
Experiment [1] deals with ACHN renal.
The test system of experiment [2] is CAKI-1 renal.
Experiment [3] concerns DU-145 prostate.
In experiment [4] the test system is HCT-15 colon.
Experiment [5] relates to OVCAR-5 ovarian.
For experiment [6], the system named is PC-3 prostate.
The test system of experiment [7] is RPMI-8226 leukemia.
For experiment [8], the system named is SK-MEL-2 melanoma.
Experiment [9] deals with SK-MEL-28 melanoma.
For experiment [10], the system named is SNB-75 CNS.

As to `COc1cc2ncn(-c3cc(O[C@@H](C)c4ccccc4Cl)c(C(N)=O)s3)c2cc1OC`, the GI50 (commonly the concentration giving 50% growth inhibition) in experiment [1] was 2.89 µM; in experiment [2], 6.8 µM; in experiment [3], 0.727 µM; in [4], 0.743 µM; in [5], 1.29 µM; in experiment [6] it was 2.55 µM. Also, the GI50 in experiment [7] was 1.49 µM; in experiment [8] it was 1.58 µM; in [9] it was 3.84 µM; in experiment [10], 3.86 µM. The TGI in experiment [1], in [2], in experiment [3], in experiment [4], in [5] and in experiment [6] was > 25 µM in each case. For the same molecule, the TGI (in general, the concentration at which net growth stops) in experiment [7] is > 19 µM; in experiment [8], > 25 µM; in [9] it was > 25 µM; in experiment [10], > 25 µM.

With `CCCN(CCC)c1ccc(/C=C/c2ccc3cc(OCC)ccc3n2)cc1`, the GI50 in [1] was 63.4 µM; in [2] it was 73.3 µM; in experiment [3], > 100 µM; in [4] it was 9.7 µM; in experiment [5] it was > 100 µM; in [6], 56.3 µM. For the same molecule, the GI50 in experiment [7] is 6.29 µM; in experiment [8], > 100 µM; in experiment [9], > 100 µM; in experiment [10] it was 54.7 µM. Also, the TGI in experiment [1], in experiment [2], in experiment [3], in [4], in [5] and in [6] was > 100 µM in each case. Moreover, the TGI in [7], in experiment [8], in [9] and in experiment [10] was > 100 µM throughout.

`NC1CCC(Nc2nc(NCc3ccc(-c4ccccc4O)nc3)c3ncn(C4CCCC4)c3n2)CC1` (stereo not given): the GI50 in experiment [1] was 0.14 µM; in experiment [2], 0.38 µM; in experiment [3] it was 0.0344 µM; in experiment [4], 0.21 µM; in experiment [5] it was 0.0322 µM; in [6] it was 0.0275 µM. Moreover, the GI50 in experiment [7] was < 0.01 µM; in experiment [8] it was 0.0227 µM; in experiment [9], 0.0211 µM; in [10], 0.0121 µM. Also, the TGI in [1] was 1.07 µM; in experiment [2], 2.2 µM; in experiment [3], 1.16 µM; in experiment [4], 1.14 µM; in [5], 1.38 µM; in experiment [6], 1.02 µM. In addition, the TGI turned out to be 0.0479 µM in [7], 0.0583 µM in [8], 0.0713 µM in [9] and 0.0356 µM in experiment [10].

Take `COc1ccc(-c2cc(-c3cccn3C)c(C#N)c(=O)[nH]2)cc1OC`: the GI50 in experiment [1], in [2], in [3], in experiment [4], in [5] and in experiment [6] was > 100 µM each time. Besides, the GI50 in experiment [7] was > 100 µM; in [8], > 100 µM; in experiment [9] it was > 100 µM; in [10], 24.2 µM. The TGI in experiment [1], in experiment [2], in [3], in [4], in experiment [5] and in [6] was > 100 µM in each case. Also, the TGI in experiment [7], in [8], in experiment [9] and in [10] was > 100 µM in each case.

With `CC(=O)N1C/C(=C/c2ccc(Cl)cc2)C(=O)/C(=C/c2ccc(Cl)cc2)C1`, the GI50 in experiment [1] was 0.769 µM; in experiment [2], 2.53 µM; in [3] it was 1.13 µM; in [4], 0.446 µM; in experiment [5], 1.68 µM; in experiment [6], 0.47 µM. Also, the GI50 is 0.0889 µM in experiment [7], 2.19 µM in experiment [8], 1.54 µM in experiment [9] and 0.963 µM in [10]. In addition, the TGI in experiment [1] was found to be 2.05 µM; in experiment [2], 8.5 µM; in experiment [3], 2.62 µM; in experiment [4], 1.52 µM; in [5], 3.45 µM; in experiment [6] it was 2.28 µM. Besides, the TGI in [7] stood at 0.463 µM; in experiment [8] it was 4.56 µM; in [9] it was 3.2 µM; in experiment [10], 2.64 µM.

On to `O=C1c2ccccc2-c2oc(=O)c3ccccc3c21`, for which the TGI in experiment [1], in experiment [2], in [3], in experiment [4], in [5] and in experiment [6] was > 100 µM in each case. Moreover, the TGI in [7], in experiment [8], in experiment [9] and in experiment [10] was > 100 µM in each case.

Take `O=c1cc(N2CCN(CCCCCOc3cc(O)c4c(=O)cc(-c5ccccc5)oc4c3)CC2)c2ccccc2o1`: the GI50 in experiment [1] was > 100 µM; in [2] it was > 100 µM; in experiment [3] it was 89 µM; in [4], > 100 µM; in experiment [5], > 100 µM; in experiment [6], 43.1 µM. The GI50 was 12.4 µM in experiment [7], > 100 µM in experiment [8], 61.8 µM in experiment [9] and > 100 µM in [10]. Also, the TGI in [1], in experiment [2], in experiment [3], in experiment [4], in experiment [5] and in experiment [6] was > 100 µM throughout. The TGI in experiment [7], in experiment [8], in [9] and in experiment [10] was > 100 µM throughout.
